We go through 17 compounds from PubChem BioAssay AID256 (DTP/NCI, 2004).

“And” between values parts separate entries of the source, which are not always exact repeats. Equal values may be shown once. Toxic doses and inconclusive results are not listed.

The subject of the test is CD2F1 mice, L1210 leukemia ip, survival T/C. Nature of the test: NCI In Vivo Anticancer Drug Screen. Data for tumor model L1210 Leukemia (intraperitoneal) in CD2F1 (CDF1) mice. To be noted: higher = longer survival. In short, it runs like this: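 Mice carrying a transplanted tumor received test compound or vehicle alone. The value is the measurement in the treated group divided by that in the vehicle-treated control group.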

[1] abbreviates: endpoint: mean survival time, dose: 12.5 mg/kg/injection, schedule: Q04DX003 (ip), vehicle: saline.
Where [2] appears, read: endpoint: mean survival time, dose: 25.0 mg/kg/injection, schedule: Q04DX003 (ip), vehicle: saline.
[3] abbreviates: endpoint: mean survival time, dose: 100.0 mg/kg/injection, schedule: Q04DX002 (ip), vehicle: saline with Tween-80.
The mark [4] stands for this setting: endpoint: mean survival time, dose: 200.0 mg/kg/injection, schedule: Q04DX002 (ip), vehicle: saline with Tween-80.
Setting [5] is: endpoint: mean survival time, dose: 100.0 mg/kg/injection, schedule: Q01DX009 (ip), vehicle: saline with Tween-80.
The mark [6] stands for this setting: endpoint: mean survival time, dose: 100.0 mg/kg/injection, schedule: Q04DX003 (ip), vehicle: saline with Tween-80.
Setting [7] is: endpoint: mean survival time, dose: 200.0 mg/kg/injection, schedule: Q04DX003 (ip), vehicle: saline with Tween-80.
Where [8] appears, read: endpoint: mean survival time, dose: 200.0 mg/kg/injection, schedule: Q01DX009 (ip), vehicle: saline with Tween-80.
The mark [9] stands for this setting: endpoint: mean survival time, dose: 400.0 mg/kg/injection, schedule: Q01DX009 (ip), vehicle: saline with Tween-80.

Take `CCC(CC)(C[NH-])C[NH-].[Cl][Pt+2][Cl]`: the T/C (endpoint: mean survival time, dose: 1.56 mg/kg/injection, schedule: Q04DX003 (ip), vehicle: saline) is 105 % of control; the T/C (endpoint: mean survival time, dose: 3.12 mg/kg/injection, schedule: Q04DX003 (ip), vehicle: saline) is 118 % of control; the T/C (endpoint: mean survival time, dose: 6.25 mg/kg/injection, schedule: Q04DX003 (ip), vehicle: saline) was 119 % of control; the T/C (endpoint: mean survival time, dose: 12.5 mg/kg/injection, schedule: Q04DX003 (ip), vehicle: saline with Tween-80) is 319 % of control; the T/C under setting [1] was 155 % of control; the T/C (endpoint: mean survival time, dose: 25.0 mg/kg/injection, schedule: Q04DX003 (ip), vehicle: saline with Tween-80) was 307 % of control. In addition, the T/C under setting [2] is 227 % of control; the T/C (endpoint: mean survival time, dose: 50.0 mg/kg/injection, schedule: Q04DX003 (ip), vehicle: saline with Tween-80) is 86 % of control; the T/C (endpoint: median survival time, dose: 1.5 mg/kg/injection, schedule: Q01DX009 (ip), vehicle: carboxymethylcellulose (CMC)) was 234 % of control; the T/C (endpoint: median survival time, dose: 3.0 mg/kg/injection, schedule: Q01DX009 (ip), vehicle: carboxymethylcellulose (CMC)) was 203 % of control; the T/C (endpoint: median survival time, dose: 6.0 mg/kg/injection, schedule: Q01DX001 (ip), vehicle: carboxymethylcellulose (CMC)) was 203 % of control; the T/C (endpoint: median survival time, dose: 6.0 mg/kg/injection, schedule: Q01DX009 (ip), vehicle: carboxymethylcellulose (CMC)) was 109 % of control. Further, the T/C reads like this: (endpoint: median survival time, dose: 9.0 mg/kg/injection, schedule: Q01DX001 (ip), vehicle: carboxymethylcellulose (CMC)) 312 % of control; (endpoint: median survival time, dose: 9.0 mg/kg/injection, schedule: Q01DX009 (ip), vehicle: carboxymethylcellulose (CMC)) 98 % of control; (endpoint: median survival time, dose: 12.0 mg/kg/injection, schedule: Q01DX001 (ip), vehicle: carboxymethylcellulose (CMC)) 312 % of control; (endpoint: median survival time, dose: 15.0 mg/kg/injection, schedule: Q01DX001 (ip), vehicle: carboxymethylcellulose (CMC)) 106 % of control.
Turning to `O=NN(CCCCl)C(=O)Nc1ccccc1`, the T/C reads like this: (endpoint: mean survival time, dose: 100.0 mg/kg/injection, schedule: Q01DX001 (ip), vehicle: carboxymethylcellulose (CMC)) 96 % of control; (endpoint: mean survival time, dose: 200.0 mg/kg/injection, schedule: Q01DX001 (ip), vehicle: carboxymethylcellulose (CMC)) 119 % of control.
As for `C[n+]1ccn(C(CC(=O)O)C(=O)O)c1` (centres undefined), the T/C was 101 % of control (endpoint: mean survival time, dose: 100.0 mg/kg/injection, schedule: Q04DX003 (ip), vehicle: saline); 103 % of control (endpoint: mean survival time, dose: 200.0 mg/kg/injection, schedule: Q04DX003 (ip), vehicle: saline); 106 % of control (endpoint: mean survival time, dose: 400.0 mg/kg/injection, schedule: Q04DX003 (ip), vehicle: saline).
For `O=[N+]([O-])c1cccc(C[n+]2ccccc2C2OCCO2)c1`, the T/C reads like this: (endpoint: mean survival time, dose: 6.25 mg/kg/injection, schedule: Q01DX009 (ip), vehicle: saline) 101 % of control; (endpoint: mean survival time, dose: 12.5 mg/kg/injection, schedule: Q01DX009 (ip), vehicle: saline) 101 % of control; under setting [1], 104 % of control; (endpoint: mean survival time, dose: 25.0 mg/kg/injection, schedule: Q01DX009 (ip), vehicle: saline) 96 % of control; under setting [2], 114 % of control.
On to `CC1CN(C2(c3ccccc3)CCCCC2)CCC12OCCO2` (centres undefined), for which the T/C was 93 % of control under setting [3] and 97 % of control under setting [4].
Take `CCCCCCCC/C=C\CCCCCCCC(=O)OCCCCC`: the T/C is 87 % of control under setting [3]; 95 % of control under setting [4]; 106 % of control (endpoint: mean survival time, dose: 400.0 mg/kg/injection, schedule: Q04DX002 (ip), vehicle: saline with Tween-80).
Turning to `CCS(=O)(=O)OC1CCCCCCC1NC(=O)c1ccccc1` (centres undefined), the T/C was 100 % of control (endpoint: mean survival time, dose: 50.0 mg/kg/injection, schedule: Q01DX009 (ip), vehicle: saline with Tween-80); 97 % of control under setting [5]; 104 % of control under setting [6]; 98 % of control under setting [7].
On to `CC12NC(=O)NC1(C)NC(=O)N2` (centres undefined), for which the T/C by setting is: under setting [5], 95 % of control; under setting [8], 101 % of control; under setting [9], 86 % of control.
`CCCCCCCCCCCCSC1=CC(=O)C(OC)=C(OC)C1=O`: the T/C is 95 % of control (endpoint: mean survival time, dose: 0.78 mg/kg/injection, schedule: Q01DX009 (ip), vehicle: other); 95 % of control (endpoint: mean survival time, dose: 1.56 mg/kg/injection, schedule: Q01DX009 (ip), vehicle: other); 97 % of control (endpoint: mean survival time, dose: 3.13 mg/kg/injection, schedule: Q01DX009 (ip), vehicle: other); 97 % of control (endpoint: mean survival time, dose: 6.25 mg/kg/injection, schedule: Q01DX009 (ip), vehicle: other); 95 % of control (endpoint: mean survival time, dose: 12.5 mg/kg/injection, schedule: Q01DX009 (ip), vehicle: other); 94 % of control (endpoint: mean survival time, dose: 25.0 mg/kg/injection, schedule: Q01DX009 (ip), vehicle: other).
In the case of `COc1ccc(NC(C)=O)c(O)c1C`, the T/C was 95 % of control (endpoint: mean survival time, dose: 100.0 mg/kg/injection, schedule: Q01DX001 (ip), vehicle: saline with Tween-80) and 90 % of control (endpoint: mean survival time, dose: 400.0 mg/kg/injection, schedule: Q01DX001 (ip), vehicle: saline with Tween-80).
Turning to `[Cl][Pt][Cl].c1ccc([PH+](CC[PH+](c2ccccc2)c2ccccc2)c2ccccc2)cc1`, the T/C runs as follows: (endpoint: mean survival time, dose: 37.5 mg/kg/injection, schedule: Q04DX003 (ip), vehicle: saline) 98 % of control; (endpoint: mean survival time, dose: 75.0 mg/kg/injection, schedule: Q04DX003 (ip), vehicle: saline) 93 % of control; (endpoint: mean survival time, dose: 150.0 mg/kg/injection, schedule: Q04DX003 (ip), vehicle: saline) 96 % of control; (endpoint: mean survival time, dose: 300.0 mg/kg/injection, schedule: Q04DX003 (ip), vehicle: saline) 95 % of control.
For `O=[N+]([O-])c1cccc(/C=C/C=C/c2ccc(Cl)c(S(=O)(=O)F)c2)c1`, the T/C was 100 % of control under setting [5]; 100 % of control under setting [6]; 94 % of control under setting [8]; 88 % of control under setting [7]; 97 % of control under setting [9]; 90 % of control (endpoint: mean survival time, dose: 400.0 mg/kg/injection, schedule: Q04DX003 (ip), vehicle: saline with Tween-80).
Consider `Cc1cccc2c1-c1c(C)cccc1CSC2`, for which the T/C under setting [5] was 95 % of control; the T/C (endpoint: mean survival time, dose: 100.0 mg/kg/injection, schedule: Q04DX003 (ip), vehicle: saline sonified) is 98 % of control; the T/C under setting [8] is 97 % of control; the T/C (endpoint: mean survival time, dose: 200.0 mg/kg/injection, schedule: Q04DX003 (ip), vehicle: saline sonified) was 93 % of control; the T/C under setting [9] was 101 % of control; the T/C (endpoint: mean survival time, dose: 400.0 mg/kg/injection, schedule: Q04DX003 (ip), vehicle: saline sonified) was 93 % of control.
As to `Clc1ccc(Nc2ccccc2)cc1`, the T/C by setting is: (endpoint: mean survival time, dose: 100.0 mg/kg/injection, schedule: Q01DX001 (ip), vehicle: other) 90 % of control; (endpoint: mean survival time, dose: 200.0 mg/kg/injection, schedule: Q01DX001 (ip), vehicle: other) 90 % of control; (endpoint: mean survival time, dose: 400.0 mg/kg/injection, schedule: Q01DX001 (ip), vehicle: other) 90 % of control.
As to `CC(C)C(C#[N+][O-])C(C)C`, the T/C by setting is: (endpoint: mean survival time, dose: 75.0 mg/kg/injection, schedule: Q01DX001 (ip), vehicle: other) 108 % of control; (endpoint: mean survival time, dose: 150.0 mg/kg/injection, schedule: Q01DX001 (ip), vehicle: other) 105 % of control; (endpoint: mean survival time, dose: 300.0 mg/kg/injection, schedule: Q01DX001 (ip), vehicle: other) 96 % of control.
With `CC(C)(C)[N+](Cc1ccccc1)(Cc1ccccc1)Cc1ccccc1`, the T/C is 104 % of control under setting [5], 96 % of control under setting [8] and 98 % of control under setting [9].
Consider `Cc1c(O)/c(=C\O)c2nc3c(=O)ccc(C(=O)NCCN(C)C)c3[nH]c2c1=O`, for which the T/C reads like this: (endpoint: median survival time, dose: 12.5 mg/kg/injection, schedule: Q01DX005 (ip), vehicle: water) 103 % of control and 110 % of control; (endpoint: median survival time, dose: 18.0 mg/kg/injection, schedule: Q01DX005 (ip), vehicle: water) 115 % of control; (endpoint: median survival time, dose: 25.0 mg/kg/injection, schedule: Q01DX005 (ip), vehicle: water) 114 % of control and 105 % of control.
